Article PMC4398321, “Epoxide based inhibitors of the hepatitis C virus non-structural 2 autoprotease” (Antiviral Research, 2015)

Columns and labels:
[1] = target: T1, JFH1 NS2–3 (NS2 autoprotease) (Hepatitis C virus genotype 2a, UniProt Q99IB8); experiment: NS2–3 auto-processing (refolding) assay, JFH1; assay type: biochemical, Hepatitis C virus genotype 2a isolate JFH1; conditions: for EC50: JFH1 NS2–3 refolding reaction, 10-point dose response, NS3-FLAG product quantified by western blot
T1 construct: (JFH1 polyprotein residues 906–1209, J4 residues 904–1206); His tag (N); made in house; host or cells: E. coli BL21 (DE3) pLysS, pET23a
T1 sequence (Q99IB8 906-1209): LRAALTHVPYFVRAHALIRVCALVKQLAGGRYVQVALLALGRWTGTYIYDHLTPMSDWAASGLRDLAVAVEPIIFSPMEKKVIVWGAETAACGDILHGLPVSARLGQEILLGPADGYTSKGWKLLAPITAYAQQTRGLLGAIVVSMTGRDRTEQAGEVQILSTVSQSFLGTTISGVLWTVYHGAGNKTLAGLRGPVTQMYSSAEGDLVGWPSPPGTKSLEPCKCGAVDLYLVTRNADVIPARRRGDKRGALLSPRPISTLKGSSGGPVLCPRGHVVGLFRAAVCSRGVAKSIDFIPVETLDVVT
Procedure: NS2–3 at 20 μM in 6 M GdnHCl was diluted 1:100 into Refolding buffer (30% glycerol, 0.5% CHAPS, 250 mM NaCl, 3 mM cysteine, 50 μM ZnCl2, 10 mM DTT, 50 mM HEPES–NaOH, pH 7.0) and incubated 16 h RT. Compounds (133 × final concentration in DMSO) were diluted into Refolding buffer before the addition of NS2–3 to yield required final concentrations. Reactions were halted by the addition of ¼ volume 4 × Laemmli buffer (200 mM Tris–HCl pH 6.8, 40% glycerol, 8% SDS, 0.08% bromophenol blue, 20 mM DTT) and analysed by 15% SDS–PAGE and western blot using M2 anti-FLAG monoclonal antibody (Sigma Aldrich) followed by IRDye 680RD Donkey anti-Mouse secondary (LI-COR Biosciences). Imaging and analysis was performed using Odyssey imager (LI-COR Biosciences). Intensity of the 20 kDa proteolysis product (NS3-FLAG) was quantified to calculate 50% effective concentration (EC50) using Prism 6 (GraphPad).
To assess the ability of a small molecule to inhibit NS2 protease activity, an in vitro auto-processing assay was employed. A NS2–NS3 precursor protein (NS2–3) comprising the catalytic C-terminal domain of NS2 and the N-terminal protease domain of NS3 (JFH1 polyprotein residues 906–1209, J4 residues 904–1206) flanked by an N-terminal His tag and C-terminal FLAG tag was bacterially expressed and purified from inclusion bodies under denaturing conditions by immobilised metal ion affinity chromatography (IMAC). Upon dilution into Refolding buffer, NS2–3 forms significant secondary structure ([Foster et al., 2010]) allowing the autoprotease to become active. This can be monitored by western blot analysis of NS2–3 refolding reactions with an anti-FLAG antibody to reveal 35 kDa precursor NS2–3-FLAG and 20 kDa NS3-FLAG, one of the proteolysis products. Quantification of the proteolysis product was used as a relative measure of NS2 autoprotease activity.

Huh7 cells = experiment: Cell viability endpoint assay (Thiazolyl Blue Tetrazolium Bromide); assay type: cell-based; conditions: 72 h incubation, 11-point dose response
Procedure: (§1) Cellular metabolism was quantified by 2 h incubation in 1 mM Thiazolyl Blue Tetrazolium Bromide (Sigma Aldrich) before crystals were suspended in 100 μl DMSO and absorbance at 570 nm measured using an infinite F50 platereader (Tecan). Data was normalised to DMSO control. CC50 was calculated using Prism 6 (GraphPad).
(§2) In other systems, the requirement of epoxide-based inhibitors to form a transient interaction with the protease before becoming covalently linked allows them greater selectivity and makes them more amenable to in vivo applications ([Powers et al., 2002]). To explore the potential for bis-amido based epoxide warheads to exert an inhibitory effect within a HCV model system, compounds 1–10 and cerulenin were tested for cytotoxic effects by calculating CC50 from 72 h incubation in a hepatoma cell line capable of supporting HCV replication (Supplementary Fig. 2). Of the compounds showing significant activity in vitro only 1 and 7 exerted no significant cytotoxicity up to 100 μM (Table 1).

SGR-JFH1-NS2-5B = experiment: SGR firefly luciferase assay, NS2-dependent JFH1 replicon; assay type: cell-based, Hepatitis C virus genotype 2a isolate JFH1; conditions: Telaprevir 150 nM, 48 h
Procedure: (§3) Stable cell lines harbouring SGR (Supplementary material) were maintained in Dulbecco’s modified Eagle’s medium (DMEM; Sigma) supplemented with 10% foetal bovine serum (FBS), 100 IU penicillin ml^−1, 100 μg streptomycin ml^−1, 1% non-essential amino acids and 300 μg/ml G418 (Sigma) in a humidified incubator at 37 °C in 5% CO2. Cells were seeded at a density of 2 × 10^4 cells/well in a 96 well plate. After 16 h media was removed and replaced with media supplemented with the indicated concentrations of compounds with standard DMSO at 0.25%. Plates were incubated in the absence of G418 for a further 48 h.
(§4) Luciferase activity was quantified by addition of 30 μl Passive Lysis Buffer (PLB: Promega) and addition of 40 μl LarI reagent (Promega) using a BMG Labtech plate reader with light emission recorded over 6 s. Data was normalised to DMSO control. Statistical significance was determined using the Student’s t test. […]
(§5) Constructs for HCV SGRs of the genotype 1b Con1 (BM4-5) and genotype 2a JFH1 isolates containing a firefly luciferase – neomycin phosphotransferase fusion protein (ffLuc - NPT) have been previously reported (Wyles et al., 2009, Wyles et al., 2007), into which the relevant NS2 coding sequence was introduced. […] Transcripts were purified by phenol/chloroform extraction and quantified by absorbance at 260 nm. […]

SGR-JFH1-NS3-5B = experiment: SGR firefly luciferase assay, NS2-independent JFH1 replicon; assay type: cell-based, Hepatitis C virus genotype 2a isolate JFH1; conditions: Telaprevir 150 nM, 48 h
Procedure: as §3, §4, §5

[2] = test system: SGR-JFH1-NS2-5B cell line; experiment: Cellular metabolism of SGR-JFH1-NS2-5B cell line; assay type: cell-based; conditions: Telaprevir 150 nM, 48 h
Procedure: as §3, §1

[3] = test system: SGR-JFH1-NS3-5B cell line; experiment: Cellular metabolism of SGR-JFH1-NS3-5B cell line; assay type: cell-based; conditions: Telaprevir 150 nM, 48 h
Procedure: as §3, §1

[4] = Cell viability endpoint assay (Thiazolyl Blue Tetrazolium Bromide); assay type: cell-based; conditions: human, Huh7 cells (hepatoma cell line); 72 h incubation, 11-point dose response
Procedure: as §1, §2

[5] = target: T1, JFH1 NS2–3 (NS2 autoprotease); set-up: method as in Pieroni et al., 1997; Thibeault et al., 2001; conditions: ref Pieroni et al., 1997; Thibeault et al., 2001; cited from earlier work

For `Cc1ccc(S(=O)(=O)N[C@@H](Cc2ccccc2)C(=O)CCl)cc1` [TPCK, Tosyl phenylalanine chloromethyl ketone], the EC50 [1] was 15.3 µM and the CC50 (Huh7 cells) was 3.3 µM.

For `CCC[C@H](NC(=O)[C@@H]1[C@H]2CCC[C@H]2CN1C(=O)[C@@H](NC(=O)[C@@H](NC(=O)c1cnccn1)C1CCCCC1)C(C)(C)C)C(=O)C(=O)NC1CC1` [Telaprevir], the Luciferase activity (SGR-JFH1-NS2-5B) was “comparable reduction”, the Luciferase activity (SGR-JFH1-NS3-5B) was “comparable reduction” and the Cellular metabolism [2] was “no effect”. The Cellular metabolism [3] was “no effect”.

In the case of `C/C=C/C/C=C/CCC(=O)[C@H]1O[C@H]1C(N)=O` [Cerulenin], the EC50 [1] is reported as > 300 µM, the “Activity against the NS2 autoprotease (in words)” value ([1]; JFH1 NS2–3 refolding, dose response) is reported as “no activity” and the CC50 at 72 h [4] is reported as 31.9 µM.

For `CC(C)C[C@H](NC(=O)[C@H]1O[C@@H]1C(=O)O)C(=O)NCCCCN=C(N)N` [Compound E64], the “Inhibition of NS2 autoprotease” value ([1]; E64 300 μM) is listed as “not inhibited” and the “Activity against the NS2 autoprotease” value [5] is listed as “inactive”.

In the case of `O=C(O)CN(CCN(CC(=O)O)CC(=O)O)CC(=O)O` [EDTA], the “Inhibition of NS2 autoprotease activity” value ([1]; EDTA 10 mM) is reported as “inhibited”.
